Source: the NIST ThermoML archive (doi:10.1016/j.jct.2009.07.001)
± gives the expanded uncertainty stated by the source.

Assay: excess molar enthalpy (molar enthalpy of mixing); xn = mol fraction of the nth substance listed
Conditions: 298.15 K, 101 kPa, Liquid, Calvet calorimetry

CCCCCCCCCCO [decan-1-ol] + CCCCOCCCC
Conditions | excess molar enthalpy [kJ/mol]
x1 = 0.0549 | 0.347 ± 0.014
x1 = 0.1045 | 0.546 ± 0.022
x1 = 0.1508 | 0.667 ± 0.027
x1 = 0.1992 | 0.754 ± 0.031
x1 = 0.2491 | 0.81 ± 0.033
x1 = 0.2975 | 0.853 ± 0.035
x1 = 0.3443 | 0.864 ± 0.035
x1 = 0.3964 | 0.87 ± 0.035
x1 = 0.4484 | 0.896 ± 0.037
x1 = 0.4966 | 0.834 ± 0.034
x1 = 0.5428 | 0.777 ± 0.032
x1 = 0.5887 | 0.732 ± 0.03
x1 = 0.646 | 0.657 ± 0.027
x1 = 0.6819 | 0.609 ± 0.025
x1 = 0.7402 | 0.514 ± 0.021
x1 = 0.7812 | 0.442 ± 0.018
x1 = 0.8272 | 0.345 ± 0.014
x1 = 0.8767 | 0.249 ± 0.01
x1 = 0.9225 | 0.149 ± 0.006
